Tests used:
[1] = Freeze-thaw stability of QC stock solution in DMSO; format: physicochemical; conditions: stock 10 μM in DMSO at −20 °C
Experimental: Freeze-thaw stability of QC stock solution 10 μM at −20 °C was performed with stock solution that had underwent 0, 1 and 10 freeze-thaw cycles. Three samples per freeze-thaw cycle in MeOH:H2O 60%:40% were prepared at 100 nM and measured in duplicate. Four QC samples per concentration were prepared in plasma. Four replicates per sample were frozen for 60 min at −20 °C. All samples were thawed at room temperature and frozen ones (cycle 1). Per four replicates and concentrations the samples were thawed and frozen further a second, third or fourth time. All samples were thawed at the same time for simultaneous assessment with a calibration curve.

[2] = Stability of QC samples in plasma during storage in different conditions; format: in vitro ADME, human
[3] = Plasma concentration curve after single oral intake of curcuminoid capsules; format: in vivo, human; conditions: three participants, 4 capsules containing 600 mg curcuminoids, versus untreated sample
Experimental: (§1) One mL TBME was added to the mixture. Feces samples were first diluted 10.000x (four steps of 1:10 dilution) with Bovine Serum Albumin (BSA) 2% in Milli-Q water to reduce matrix effects before 50 μL IS-mix 100uM was added to 100 μL feces dilution. A second 100 μL sample with IS solution was hydrolyzed with 50 μL 20 U/μl β-glucuronidase, vortexed and after this addition incubated for 1 h at 37 °C. Following 1 mL TBME was added. After shaking for 15 min at 480 rpm/min all samples were centrifuged at 18213×g during 1 min. The lower aqueous layer was frozen on dry-iced ethanol and the upper organic layer of approximately 1 mL was decanted into a fresh tube and dried under vacuum using a Speedvac at room temperature. Next, samples were reconstituted with 100 μL MeOH:H2O 60%:40%, vortexed and sonicated for 5 min. After centrifuge at 18213×g during 3 min the supernatant was ready for injection into the HPLC-MS/MS.
(§2) Data from three healthy male participants included from a study researching the bioavailability of curcumin formulations is presented to show the applicability of the method in real-life settings. The participants signed informed consent and followed diet restrictions to avoid any curcumin or piperine intake five days before the visit day to ensure that only curcumin and/or piperine from the curcumin capsules were observed. On the visit day a plasma concentration curve at t = 0, 0.25, 0.50, 0.75, 1, 1.5, 2, 4, 8 and 24 h, collection of 24-h urine and 48-h feces were taken after single oral intake of 4 commercially available soft capsules containing 600 mg curcuminoids (curcumin, demethoxycurcumin and bisdemethoxycurcumin with 95% purity). The trial has been approved by the local institutional ethics committee and has been registered in the Dutch Clinical Trial Register under registration number NL6552. Each individual sample was analyzed according to the method described above.

[4] = 24-h urine concentration after single oral intake of curcuminoid capsules; format: in vivo, human; conditions: three participants, 4 capsules containing 600 mg curcuminoids, versus untreated sample
Experimental: as §1, §2

[5] = 48-h feces concentration after single oral intake of curcuminoid capsules; format: in vivo, human; conditions: 4 capsules containing 600 mg curcuminoids
Experimental: as §1, §2

[6] = tested on: retinal pigmented epithelial cells and retinal endothelial cells; design: method as in PMID 30013474; conditions: 10 μM; cited from earlier work
SW620 cells = tested on: SW620 cells; design: method as in PMID 33812170; conditions: 10 μM, incubated for 2 days; cited from earlier work
pancreatic cancer = tested on: pancreatic cancer; design: method as in PMID 18628464; conditions: Phase II; cited from earlier work
[7] = design: method as in PMID 9619120; conditions: rats; addition of 20 mg/kg piperine; cited from earlier work
[8] = QC 10, Room temperature - light
[9] = QC 50, Room temperature - light
[10] = QC 100, Room temperature - dark
[11] = QC 100, Room temperature - light

Row | Compound | Freeze-thaw stability, concentration relative to nominal ([1]; QC 100 nM 0x thawed) | Freeze-thaw stability, concentration relative to nominal ([1]; QC 100 nM 1x thawed) | Freeze-thaw stability, concentration relative to nominal ([1]; QC 100 nM 10x thawed) | Stability sample during storage ([2]; QC 10, AS (reference)) | Stability sample during storage ([2]; QC 10, On ice - dark) | Stability sample during storage ([2]; QC 10, Room temperature - dark) | Stability sample during storage [2, 8] | Stability sample during storage ([2]; QC 50, AS (reference)) | Stability sample during storage ([2]; QC 50, On ice - dark) | Stability sample during storage ([2]; QC 50, Room temperature - dark) | Stability sample during storage [2, 9] | Stability sample during storage ([2]; QC 100, AS (reference)) | Stability sample during storage ([2]; QC 100, On ice - dark) | Stability sample during storage [2, 10] | Stability sample during storage [2, 11] | Plasma peak concentrations after treatment with β-glucuronidase [3] | Urine concentrations after treatment with β-glucuronidase [4] | Percentage in feces of the total expected dosage [5] | also measured
1 | COc1cc(/C=C/C(=O)CC(=O)/C=C/c2ccc(O)c(OC)c2)ccc1O [Curcumin, curcumin] | 100% | 99.8% | 96.8% | 100% | 76% | 83% | 82% | 100% | 89% | 94% | 91% | 100% | 87% | 90% | 89% | increase | increase | roughly 21.7% | ROS concentration [6]: decrease; TNF-α release [6]: decrease; Phosphorylation levels of ERK and STAT1 (SW620 cells): significantly downregulated; Anecdotal beneficial effect, treated patients (pancreatic cancer): two out of 21
2 | demethoxycurcumin [Demethoxy-curcumin] | 100% | 102.2% | 103.1% | 100% | 93% | 95% | 87% | 100% | 96% | 100% | 93% | 100% | 91% | 95% | 89% | increase | increase | 24.7% | –
3 | O=C(/C=C/c1ccc(O)cc1)CC(=O)/C=C/c1ccc(O)cc1 [Bisdemethoxy-curcumin, bisdemethoxycurcumin] | 100% | 100.7% | 97.1% | 100% | 90% | 95% | 88% | 100% | 90% | 92% | 89% | 100% | 84% | 84% | 82% | increase | increase | 13% | –
4 | COc1cc(CCC(=O)CC(=O)CCc2ccc(O)c(OC)c2)ccc1O [Tetrahydrocurcumin] | 100% | 101.0% | 100.0% | 100% | 96% | 89% | 88% | 100% | 99% | 93% | 93% | 100% | 94% | 88% | 87% | increase | increase | – | Presence in feces [5]: No tetrahydrocurcumin was found
5 | O=C(/C=C/C=C/c1ccc2c(c1)OCO2)N1CCCCC1 [Piperine-135, piperine] | 100% | 101.8% | 101.7% | 100% | 77% | 78% | 77% | 100% | 90% | 85% | 90% | 100% | 89% | 85% | 85% | – | – | – | Increase of bioavailability of curcumin [7]: 154%

Source: PMC10149208, “A validated HPLC-MS/MS method for simultaneously analyzing curcumin, demethoxycurcumin, bisdemethoxycurcumin, tetra-hydrocurcumin and piperine in human plasma, urine or feces” (Heliyon, 2023)
